From patent publication US20150182667A1, “Composition with Biofilm Dispersal Agents” (Vanderbilt University, priority 2012, published 2015)

Tests used:
[1] = test system: S. aureus Xen 36A; test: Contaminated 6-mm excisional cutaneous wounds in mice; assay type: in vivo, C57BL/6 mice; settings: 2×10^6 CFU, collagen gel with 5% D-Trp, 1 and 3 days, not shown
Method: 6-mm excisional wounds in C57BL/6 mice (6-8 weeks), which had previously been shaved and sterilized, were made. The mice were contaminated with 2×10^6 or 2×10^7 CFU S. aureus Xen 36A (Perkin Elmer, Waltham, Mass.). Approximately 2-3 minutes following exposure to bacteria, collagen gels (hydrogel, HG) with and without 5% D-Trp were applied to the wounds for about 5 minutes before applying a Tegaderm bandage (3M, St. Paul, Minn.). Wounds were monitored daily for up to 3 days. At 1 and 3 days post-infection mice were evaluated using the IVIS (to visualized bioluminescent bacteria within wounds) and the wound tissues were harvested, homogenized, and plated on blood agar to enumerate bacteria within wound (CFU/mL/g tissue).

[2] = test system: S. aureus clinical isolate biofilms; test: Biofilm dispersal and prevention, crystal violet 96-well assay (Example 1); assay type: cell-based, Staphylococcus aureus; settings: 5 mM
Method: (§1) Biofilm formation was performed under static conditions in polystyrene 96-well plates (Corning, Inc., Corning, N.Y.). Briefly, overnight bacterial cultures were diluted to an OD600 of 0.1 in CA-MHB and 10 μL was added to individual wells filled with 190 μl of media and incubated at 37° C. for 48 h without shaking for biofilm growth. Following incubation, culture media was removed and 200 μL media containing individual D-AA at concentrations of 5 mM-1 nM was added. Plates were incubated for an additional 24 h at 37° C. After treatment, plates were gently washed with 1× phosphate buffered saline (PBS; pH 7.4) to remove non-adherent bacteria. Biofilms (i.e. attached cells) were then stained with 0.1% (w/v) crystal violet for 10 min, washed, followed by solubilization of crystal violet with 33% (v/v) acetic acid for 10 min. Biofilm biomass was determined by measuring the absorbance at 570 nm using a microtiter plate reader. For assays measuring the ability of D-AA to block biofilm formation, cells were grown under biofilm conditions as above in the presence of media containing D-AA. Three independent experiments with a minimum of 4 replicates were performed for each experimental assay. Representative images of the plates of CV stained biofilms following treatment with D-AA, prior to solubilization, were taken using a digital camera.

[3] = test system: S. aureus clinical isolates biofilms; test: Biofilm dispersal and prevention, crystal violet assay (Example 3); assay type: cell-based
Method: Like in Example 1, biofilm formation was assessed under static conditions using polystyrene 96-well plates (Corning, Inc.). Overnight bacterial cultures were diluted to an OD600 of 0.1 in TSB (˜10^7 CFU/mL), and 20 μL were added to individual wells filled with 180 μL of media and incubated at 37° C. for 48 h. To assess the biofilm dispersal activity of D-AAs, the culture medium from biofilms was removed after 48 h and 200 μL fresh medium containing either an individual D-AA or an equimolar mixture of D-AAs (1:1:1: D-Met:D-Pro:D-Trp) were added at the indicated concentrations. After treatment with D-AA(s) for 24 h, plates were gently washed with 1× phosphate buffered saline (PBS) to remove unattached cells, stained with 0.1% (w/v) crystal violet (Sigma Aldrich) for 10 min, rinsed with PBS, and then solubilized with 80% (v/v) ethanol. Biofilm biomass was determined by measuring the absorbance of solubilized stain at 570 nm using a microtiter plate reader. For assays measuring the ability of D-AA to block biofilm formation, cells were grown under biofilm conditions as above in the presence of media containing D-AAs. Representative images of the plates of CV-stained biofilms following treatment with D-AA prior to solubilization were taken using a digital camera. All assays were repeated in triplicate with a minimum of four technical replicates.

[4] = test system: human osteoblasts; test: CellTiter-Fluor cell viability assay; assay type: cell-based; settings: 24 h
Method: (§2) To observe the cellular viability of PUR/D-AA composites, human dermal fibroblasts and human osteoblasts (PromoCell) were maintained in Dulbecco's Modified Eagle Medium (DMEM; Invitrogen) supplemented with 10% Fetal Bovine Serum (FBS) and 1× penicillin/streptomycin. Human epidermal keratinocytes (HEK-001; ATCC CRL-2404) were maintained in Keratinocyte-serum free media (GIBCO) supplemented with 5 ng/mL human recombinant EGF and 2 mM L-glutamine. All cell lines were cultured at 37° C. in 5% CO2. Prior to each assay cells were seeded at 100% confluence in black-clear bottom 96-well plates. After 24 h, cells were exposed to media containing D-AA, 50 mM-1 nM, and incubated for 24-48 h at 37° C. in 5% CO2. Following treatment, cells were washed, resuspended in 100 μL of sterile saline and viability was determined using the CellTiter-Flour Cell Viability Assay (Promega) following the manufacturer's instructions. Viability assays were performed in triplicate with a minimum of 3 replicates. Viability was reported as the percentage of viable cells relative to untreated controls.
(§3) Human dermal fibroblasts and osteoblasts (PromoCell, Heidelberg, Germany) were maintained in Dulbecco's Modified Eagle Medium (DMEM; Invitrogen, Grand Island, N.Y.) supplemented with 10% Fetal Bovine Serum (FBS) and 1× penicillin/streptomycin at 37° C. in 5% CO2. Prior to each assay, cells were seeded at 100% confluence in black-clear bottom 96-well plates. After 24 h cells were exposed to media containing D-AA (1 nM-50 mM) and incubated for 24 h. Following treatment, cells were washed, re-suspended in 100 μL of sterile saline, and assessed for viability using the CellTiter-Fluor Cell Viability Assay (Promega, Madison, Wis.) following the manufacturer's instructions. Viability assays were performed in triplicate with a minimum of four replicates. Viability was reported as the percentage of viable cells relative to untreated controls.

[5] = test system: human dermal fibroblasts; test: CellTiter-Fluor cell viability assay; assay type: cell-based; settings: dermal fibroblasts, 24 h
Method: as §2, §3

[6] = Release of D-Trp from collagen gel; assay type: physicochemical; settings: collagen gel with 5% D-Trp
[7] = test system: P. aeruginosa clinical isolate biofilms; test: Biofilm dispersal and prevention, crystal violet 96-well assay (Example 1); assay type: cell-based, Pseudomonas aeruginosa; settings: 5 mM
Method: as §1

[8] = Release of D-AAs from PUR scaffolds in PBS (HPLC); assay type: physicochemical
Method: Also, kinetic release assays were performed on the PUR scaffolds by incorporating 10 wt % of a 1:1:1 mixture of D-Tr:D-Pro:D-Met incubated in PBS for up to 8 weeks. The medium was be sampled twice weekly and analyzed for D-AAs by HPLC.
PUR scaffolds incorporating 10 wt % of a 1:1:1 mixture of D-Met:D-Pro:D-Trp were incubated in PBS at 37° C. under static conditions for up to 8 weeks. This mixture was evaluated in vitro, in vivo and in the release kinetics tests to account for potential interactions between D-AAs during release. The medium was sampled on days 1, 2, 4, 7, 10, 14, 21, and 28 and analyzed for D-AAs by HPLC using a system equipped with a Waters 1525 binary pump and a 2487 Dual-Absorbance Detector at 200 nm. Samples of released D-AAs were eluted through an Atlantis HILIC Silica column (5 μm particle size, 4.6 mm diameter×250 mm length) using an isocratic mobile phase flowing at 1 mL/min. The mobile phase contained 2.5 mM potassium dihydrogen phosphate with pH=2.85 (A) and Acetonitrile (B) at a ratio of A25:B75. The column oven temperature was maintained at 30° C. Sample concentration was determined in reference to an external standard curve using the Waters Breeze system. Standard curves were prepared in the following concentration ranges: (1) 7.8 μg/mL to 1 mg/mL for D-Met and D-Pro and (2) […] to 100 μg/mL for D-Trp.

[9] = concentrations exceeding 12.5 mM

With `N[C@H](Cc1c[nH]c2ccccc12)C(=O)O` [D-Trp, D-tryptophan] the “wound contamination (bioluminescence imaging and bacterial counts)” value [1] was “reduced contamination”, the “biofilm dispersal against panel of clinical isolates (biofilm biomass OD570)” value ([2]; S. aureus clinical isolates, FIGS. 3A, 3C) was “capable of significantly dispersing biofilm formation” and the “biofilm dispersal in pre-screening of eight D-AAs” value ([2]; pre-formed S. aureus biofilms, FIG. 1) was “relatively more effective at dispersing biofilms”. For the same compound, the “dispersal of established biofilms (biofilm biomass)” value ([3]; panel of clinical isolates of methicillin-resistant S. aureus (n=5), 5 mM, 24 h, FIGS. 8A, 8C) was “effective at dispersing established biofilms”, the “biofilm dispersal in pre-screening of eight individual D-AAs” value ([3]; pre-formed biofilms of four clinical isolates, 0.001-50 mM, FIG. 7) was “effective at dispersing biofilms” and the cytotoxicity ([4]; 50 and 25 mM) was “toxic”. The “viability (percentage of viable cells relative to untreated controls)” value [4, 9] was ~60%, the cytotoxicity ([4]; effective range 1-5 mM) was “minimal cytotoxicity” and the cytotoxicity ([5]; 50 and 25 mM) was “toxic”. The “viability (percentage of viable cells relative to untreated controls)” value [5, 9] was ~60%, the cytotoxicity ([5]; effective range 1-5 mM) was “minimal cytotoxicity” and the “release in 1 day” value [6] was “about 80%”. For the same compound, the “time to complete release” value [6] was ≤ 3 days, the “biofilm dispersal against panel of clinical isolates (biofilm biomass OD570)” value ([7]; P. aeruginosa clinical isolates, FIGS. 3A, 3C) was “capable of significantly dispersing biofilm formation” and the “biofilm dispersal in pre-screening of eight D-AAs” value ([7]; pre-formed P. aeruginosa biofilms, FIG. 1) was “relatively more effective at dispersing biofilms”. The “fraction released at 4 weeks” value ([8]; PUR scaffold with 10 wt % D-AA mixture) was “less than 40%”, the “cumulative release by day 28” value ([8]; PUR scaffold with 10 wt % D-AA mixture, PBS 37° C.) was 44% and the burst release ([8]; day 1, PUR scaffold with 10 wt % 1:1:1 D-Met:D-Pro:D-Trp, PBS 37° C.) was 25%. The “b parameter of Weibull model” value ([8]; fit of D-AA release data) was 0.21.
